Measured values as given in patent publication US20220265657A1, “ADMINISTRATION METHOD AND DOSAGE REGIMEN FOR TREATMENT OF NEURODEGENERATIVE DISEASES USING TRAMETINIB AND MARKERS” (GENUV INC., priority 2019, published 2022).
Read-outs that look alike come from different tables or passages of the source.

Columns and labels:
SH-SY5Y cells = test: Immunocytochemistry of LC3, LAMP1 and lysotracker in SH-SY5Y cells; type: cell-based
Experimental: Cell culture: SH-SY5Y neuroblastoma cells were cultured at 37° C., 5% CO2., in Dulbecco's Modified Eagle Medium/Ham's F-12 nutrient mixture (DMEM/F12) (Invitrogen, Carlsbad, Calif.) supplemented with 10% heat-inactivated fetal bovine serum containing 100 units/ml penicillin, 100 μg/ml streptomycin. Primary cortical neuron cultures were derived from embryo day 18 (E18) from ICR mice. The dissociated cells were plated on glass cover slips coated with poly-D-lysine in Neurobasal medium supplemented with 2% B27 (Invitrogen), 100 units/ml penicillin, 100 μg/ml streptomycin, and 2 mM L-glutamine. Primary NSCs from normal mice were isolated from the subventricular zone (SVZ) of 8 week-old C57BL/6 mice brain. NSCs from adult Tg2576 mice brain were obtained from Seoul National University Hospital. […]
Immunocytochemistry: SH-SY5Y cells or adult NSCs were placed on glass coverslips coated with poly-L-ornithine/laminin or poly-D-lysine, respectively. […] The percentage of coefficient was calculated using the pixels above threshold of fluorescence intensities. […] The fluorescence intensity was observed under a confocal microscopy using a LSM700 microscope (Carl Zeiss). The number of LysoTracker puncta was analyzed with Icy software.

5XFAD mice [1] = conditions: for decrease of plasma cathepsin B level compared to vehicle treated 5XFAD mice: 8-month-old 5XFAD mice, 3 months oral
5XFAD mice [2] = test: Western blot of brain cortex lysates; type: in vivo
Experimental: Trametinib treatment: Trametinib (Medchemexpress, Monmouth Junction, N.J.) was micronized and suspended in the vehicle containing 5% mannitol, 1.5% hydroxypropyl methylcellulose and 0.2% sodium lauryl sulfate. For pharmacokinetic analysis, 0.05, 0.2 and 0.8 mg/kg of trametinib were orally administered to 7-week-old normal mice (ICR, n=5 per group) as a single administration. […] For studies on the change in pERK expression in normal mice and whole cell RNA sequencing study, 0.1 mg/kg/day of trametinib (in 4% DMSO+96% corn oil) was orally administered to 6-week old C57BL/6 mice (n=3 per group). Mice were sacrificed after 1, 2, 3, or 4 weeks of administration. 5XFAD mice (male, n=7˜10 per group) were divided into vehicle and trametinib treated groups. 12-month old mice received vehicle or 0.1 mg/kg of trametinib for 1 month by oral gavage once a day (These mice are referred to as “13-month old 5XFAD mice” in the Examples). […] Blood was obtained after completion of treatment.
Lysates were centrifuged at 13,000 rpm for 20 min at 4° C., and the protein content in the supernatant was determined using the Bradford assay (Bio-rad, Hercules, Calif.). For subcellular fractionation, cells were lysed with lysis buffer (250 mM Sucrose, 20 mM HEPES, pH 7.4, 10 mM KCl, 1.5 mM MgCl2, 1 mM EGTA, 1 mM EDTA, 1 mM DTT) containing protease inhibitor for 30 min on ice, followed by centrifugation at 720 g for 5 min at 4° C. Supernatants were centrifuged at 15,000 rpm for 10 min at 4° C., and the resulting supernatant was used as the cytosol fraction. After centrifugation at 720 g for 5 min, pellets were washed with lysis buffer and dissolved in nuclear lysis buffer (50 mM Tris HCl, pH 8.0, 150 mM NaCl, 1% NP40, 0.5% sodium deoxycholate, 0.1% SDS, 10% glycerol) as the nuclear fraction. Protein from each sample was subjected to 8%˜15% SDS-PAGE, and the resolved proteins were transferred to nitrocellulose or polyvinylidene fluoride membrane. […] The detected signals were quantified using a LAS-4000 system (Fuji Film, Tokyo, Japan).

Compound: CC(=O)Nc1cccc(-n2c(=O)n(C3CC3)c(=O)c3c(Nc4ccc(I)cc4F)n(C)c(=O)c(C)c32)c1 [trametinib]
- co-staining of LC3-LAMP1 (SH-SY5Y cells; even in the presence of Aβ1-42 oligomers): increased co-staining of LC3-LAMP1
- lysotracker-positive acidic puncta (SH-SY5Y cells; in the presence of Aβ1-42 oligomers): increased lysotracker-positive acidic puncta
- decrease of plasma cathepsin B level compared to vehicle treated 5XFAD mice (5XFAD mice [1]; 0.05 mg/kg/day): 56.16%
- decrease of plasma cathepsin B level compared to vehicle treated 5XFAD mice (5XFAD mice [1]; 0.1 mg/kg/day): 99.2%
- plasma cathepsin B level compared to 5XFAD-vehicle group (5XFAD mice [1]; 13-month-old 5XFAD mice, 0.1 mg/kg/day, 1 month oral): decreasing trend
- autophagosome marker LC3-II level (5XFAD mice [2]; 8-month old 5XFAD mice brain): further increased
- level of mature cathepsin B (5XFAD mice [2]; 8-month old 5XFAD mice brain): seen to increase
- expression of presynaptic marker synaptophysin and postsynaptic marker PSD-95 (5XFAD mice [2]; brain cortex lysates of 5XFAD mice): Increased expression
